What was measured:
[1] = pKa printed beside the base in Table 1; cited from earlier work
[2] = Degree of dissolution of dye, visual observation after ultrasonic irradiation; type: physicochemical; parameters: key: good: when it was in a completely dissolved state; poor: when it left some residue; failed: when it was in a hardly dissolved state; details: 1.0 g dye in 200 ml 1:1 methanol/water, ultrasonic 30 min at 25° C.
[3] = pH value of dye solution measured with a pH-meter; type: physicochemical; details: 1.0 g dye in 200 ml 1:1 methanol/water
[4] = 1,8-diazabicyclo-7-undecene, 1.0 equivalents to dye
[5] = N,N-diisopropylethylamine, 1.0 equivalents to dye
[6] = pyridine, 1.0 equivalents to dye
[7] = triethanolamine, 1.0 equivalents to dye
[8] = triethanolamine, 1.2 equivalents to dye
[9] = triethylamine, 0.8 equivalents to dye
[10] = triethylamine, 1.0 equivalents to dye
[11] = 2,4,6-trimethylpyridine, 1.0 equivalents to dye
[12] = N-methylmorpholine, 1.0 equivalents to dye

Compound | Base (pKa) [1] | Degree of dissolution [2, 4] | Degree of dissolution ([2]; base absent) | Degree of dissolution [2, 7] | Degree of dissolution [2, 8] | Degree of dissolution [2, 9] | Degree of dissolution [2, 10] | pH Value of dye solution [3, 4] | pH Value of dye solution ([3]; base absent) | pH Value of dye solution [3, 7] | pH Value of dye solution [3, 8] | pH Value of dye solution [3, 9] | pH Value of dye solution [3, 10] | other results
Cc1cc(C)nc(C)c1 [2,4,6-Trimethylpyridine] | 2,4,6-trimethylpyridine (7.43) |  |  |  |  |  |  |  |  |  |  |  |  | 
O=C(O)C[n+]1c(C=C2Sc3ccc(Cl)cc3N2CCCS(=O)(=O)[O-])sc2ccc(Cl)cc21 [Dye S-14] |  | good | failed | good | good | poor | good | 10.8 | 6.1 | 7.3 | 7.4 | 6.9 | 9.4 | Degree of dissolution [2, 5]: good; Degree of dissolution [2, 6]: failed; pH Value of dye solution [3, 5]: 10.1; pH Value of dye solution [3, 6]: 5.7
O=C(O)C[n+]1c(C=C2Sc3ccc(Cl)cc3N2CCCS(=O)(=O)[O-])sc2cc(Cl)sc21 [Dye S-37] |  | good | failed | good | good | poor | good | 11.0 | 6.2 | 7.4 | 7.5 | 7.1 | 9.6 | Degree of dissolution [2, 11]: good; Degree of dissolution [2, 12]: good; pH Value of dye solution [3, 11]: 7.2; pH Value of dye solution [3, 12]: 7.1
O=C(O)C[n+]1c(C=C2Sc3ccc(Br)cc3N2CCCS(=O)(=O)[O-])sc2ccsc21 [Dye S-39] |  |  | failed | good | good | poor | good |  | 6.3 | 7.5 | 7.6 | 7.4 | 9.7 | 
CN1CCOCC1 [N-methylmorpholine] | N-methylmorpholine (7.38) |  |  |  |  |  |  |  |  |  |  |  |  | 
